Test: xn = mol fraction of the nth substance listed
Details: 100 kPa

Compound | electrical conductivity (293.15 K, x2 = 0.333) | speed of sound (293.15 K, x2 = 0.333) | electrical conductivity (298.15 K, x2 = 0.333) | speed of sound (298.15 K, x2 = 0.333) | electrical conductivity (313.15 K, x2 = 0.333) | speed of sound (313.15 K, x2 = 0.333) | viscosity (313.15 K, x2 = 0.333) | electrical conductivity (318.15 K, x2 = 0.333) | speed of sound (318.15 K, x2 = 0.333) | viscosity (318.15 K, x2 = 0.333) | electrical conductivity (323.15 K, x2 = 0.333) | speed of sound (323.15 K, x2 = 0.333) | viscosity (323.15 K, x2 = 0.333) | electrical conductivity (333.15 K, x2 = 0.333) | speed of sound (333.15 K, x2 = 0.333) | viscosity (333.15 K, x2 = 0.333) | also measured
O=C(O)CCl + CCC[N+](CCC)(CCC)CCC.[Br-] | 0.0435 S/m | 1550.2 m/s | 0.0673 S/m | 1535.1 m/s | 0.177 S/m | 1491.4 m/s | 45.76 mPa·s | 0.228 S/m | 1477.4 m/s | 34.88 mPa·s | 0.284 S/m | 1463.4 m/s | 27.18 mPa·s | 0.407 S/m | 1436.1 m/s | 17.67 mPa·s | viscosity (293.15 K, x2 = 0.333): 178.6 mPa·s; viscosity (298.15 K, x2 = 0.333): 119.4 mPa·s; electrical conductivity (303.15 K, x2 = 0.333): 0.0981 S/m; speed of sound (303.15 K, x2 = 0.333): 1520.3 m/s; viscosity (303.15 K, x2 = 0.333): 84.3 mPa·s
O=C(O)CCl + CCCC[N+](CCCC)(CCCC)CCCC.O=S(=O)([O-])O | 0.012 S/m | 1539.9 m/s | 0.0189 S/m | 1523.1 m/s | 0.0508 S/m | 1475.5 m/s | 176.3 mPa·s | 0.0669 S/m | 1460.9 m/s | 132.2 mPa·s | 0.0861 S/m | 1446.5 m/s | 101.9 mPa·s | 0.133 S/m | 1418.6 m/s | 64.29 mPa·s | electrical conductivity (293.15 K, x2 = 0.5): 0.0017 S/m; speed of sound (293.15 K, x2 = 0.5): 1623.8 m/s; electrical conductivity (298.15 K, x2 = 0.5): 0.0032 S/m; speed of sound (298.15 K, x2 = 0.5): 1594.7 m/s; electrical conductivity (303.15 K, x2 = 0.5): 0.0053 S/m; speed of sound (303.15 K, x2 = 0.5): 1569.4 m/s; electrical conductivity (308.15 K, x2 = 0.5): 0.0037 S/m; speed of sound (308.15 K, x2 = 0.5): 1547 m/s; electrical conductivity (318.15 K, x2 = 0.5): 0.0143 S/m; speed of sound (318.15 K, x2 = 0.5): 1509 m/s; viscosity (318.15 K, x2 = 0.5): 769 mPa·s; electrical conductivity (323.15 K, x2 = 0.5): 0.0226 S/m; speed of sound (323.15 K, x2 = 0.5): 1492.3 m/s; viscosity (323.15 K, x2 = 0.5): 546 mPa·s; electrical conductivity (328.15 K, x2 = 0.333): 0.108 S/m; speed of sound (328.15 K, x2 = 0.333): 1432.5 m/s; viscosity (328.15 K, x2 = 0.333): 81.5 mPa·s; electrical conductivity (328.15 K, x2 = 0.5): 0.0306 S/m; speed of sound (328.15 K, x2 = 0.5): 1476.3 m/s; viscosity (328.15 K, x2 = 0.5): 396 mPa·s
